Measurements: patent publication US20100292185A1, “BETA-LACTAMASE INHIBITORS” (priority 2009, published 2010)
Where a name gives a salt, the structure may show the parent alone. Read-outs that look alike come from different tables or passages of the source.

Assays:
[1] = test system: K. pneumoniae expressing the Class A Extended Spectrum Beta-Lactamase (ESBL) CTX-M-15; assay: In vitro antibacterial assay of β-lactamase inhibition (broth microdilution MIC), K. pneumoniae CTX-M-15; assay type: cell-based; details: in presence of Ceftazidime 8 μg/ml (Examples 1-56)
Procedure, shortened: (§1)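 Each strain, maintained under 50 μg/mL ampicillin selection, was exposed to twofold compound dilutions (final range 8 μg/mL to 0.015 μg/ml) combined with a β-lactam antibiotic in cation-adjusted Mueller Hinton broth. The MIC was judged visually following overnight (16-20 h) incubation at 37° C.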

[2] = target: T1, VIM-2 metallo β-lactamase (Pseudomonas aeruginosa, UniProt Q9K2N0); assay: β-lactamase enzyme inhibition assay (nitrocefin substrate), VIM-2; assay type: biochemical; details: nitrocefin 100 μM, 37° C., PBS pH 7.0; read-out: VIM-2 IC50
T1 construct: made in house
Procedure, shortened: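 VIM-2 was expressed untagged in E. coli BL21(DE3) and purified by two Q sepharose anion-exchange runs plus gel filtration to >90% purity. Compounds at 100–0.005 μM in PBS pH 7.0 were preincubated with enzyme for 10 min at 37° C, then nitrocefin was added at 100 μM final. Hydrolysis was followed kinetically at 486 nm for 10 min; IC50 is the concentration halving the initial rate relative to no-inhibitor wells.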

[3] = target: T2, KPC-2 β-lactamase (Klebsiella pneumoniae, UniProt Q9F663); assay: β-lactamase enzyme inhibition assay (nitrocefin substrate), KPC-2; assay type: biochemical
T2 construct: expressed as native untagged proteins; made in house; host or cells: E. coli BL21(DE3)
T2 sequence (Q9F663 25-293 limits assumed): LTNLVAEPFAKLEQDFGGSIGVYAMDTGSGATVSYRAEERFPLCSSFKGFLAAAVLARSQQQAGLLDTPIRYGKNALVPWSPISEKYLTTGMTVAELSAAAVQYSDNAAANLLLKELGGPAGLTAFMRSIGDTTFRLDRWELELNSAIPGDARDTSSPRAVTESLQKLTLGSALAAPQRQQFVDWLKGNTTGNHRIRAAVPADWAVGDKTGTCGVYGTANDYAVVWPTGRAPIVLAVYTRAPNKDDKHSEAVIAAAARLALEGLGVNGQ
Procedure, shortened: (§2)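 IC50 values reflect a 50% drop in the initial rate of nitrocefin (100 μM final) hydrolysis, monitored at 486 nm. Inhibitor was preincubated with the purified native enzyme for 10 min at 37 °C in PBS pH 7.0.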

[4] = test system: E. cloacae expressing the Class C P99+; assay: In vitro antibacterial assay of β-lactamase inhibition (broth microdilution MIC), E. cloacae P99+; assay type: cell-based; details: in presence of Ceftazidime 8 μg/ml (Examples 1-56)
Procedure, shortened: as §1

[5] = test system: K. pneumoniae expressing the Class A carbapenemase KPC-2; assay: microbe, parasite or virus in culture; assay type: cell-based; details: in presence of Ceftazidime 8 μg/ml (Examples 1-56)
Procedure, shortened: as §1

[6] = test system: P. aeruginosa expressing the Class B metallo β-lactamase VIM-2; assay: In vitro antibacterial assay of β-lactamase inhibition (broth microdilution MIC), P. aeruginosa VIM-2; assay type: cell-based; details: in presence of Ceftazidime 16 μg/mL (Examples 1-56)
Procedure, shortened: as §1

[7] = target: T3, SHV-5 β-lactamase (Klebsiella pneumoniae, UniProt P0A3M1); assay: β-lactamase enzyme inhibition assay (nitrocefin substrate), SHV-5; assay type: biochemical
T3 construct: expressed as native untagged proteins; made in house; host or cells: E. coli BL21(DE3)
T3 sequence (P0A3M1 22-286): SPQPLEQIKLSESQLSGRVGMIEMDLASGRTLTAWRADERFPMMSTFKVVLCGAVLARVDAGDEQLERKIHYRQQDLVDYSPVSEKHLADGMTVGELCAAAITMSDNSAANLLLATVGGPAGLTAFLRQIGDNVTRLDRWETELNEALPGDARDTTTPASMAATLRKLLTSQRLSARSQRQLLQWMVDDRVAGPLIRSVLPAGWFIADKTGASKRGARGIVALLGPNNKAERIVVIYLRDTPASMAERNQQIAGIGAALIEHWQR
Procedure, shortened: as §2

[8] = target: T4, OXA-23 β-lactamase (Acinetobacter baumannii, UniProt Q9L4P2); assay: β-lactamase enzyme inhibition assay (nitrocefin substrate), OXA-23 crude extract; assay type: biochemical; details: nitrocefin 100 μM, 37° C., PBS pH 7.0; read-out: OXA-23 IC50
T4 construct: crude β-lactamase extracts were prepared from 20 ml overnight cultures; endogenous in cells; host or cells: Acinetobacter baumannii cells containing OXA-23 (crude freeze-thaw extract)
T4 sequence (Q9L4P2 18-273): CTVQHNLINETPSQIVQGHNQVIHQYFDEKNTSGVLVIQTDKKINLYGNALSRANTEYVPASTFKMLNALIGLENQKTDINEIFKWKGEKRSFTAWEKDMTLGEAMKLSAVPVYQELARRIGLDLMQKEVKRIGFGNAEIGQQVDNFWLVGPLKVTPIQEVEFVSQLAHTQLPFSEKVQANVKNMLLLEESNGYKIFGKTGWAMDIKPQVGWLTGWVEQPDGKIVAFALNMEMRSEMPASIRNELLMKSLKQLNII
Procedure, shortened: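 Crude enzyme came from freeze-thaw extracts of mid-log OXA-23-carrying A. baumannii grown in MH-II broth at 37° C. Inhibitors (100–0.005 μM in PBS pH 7.0) were preincubated with the enzyme for 10 min at 37° C, then 100 μM nitrocefin (final) was added and read kinetically at 486 nm for 10 min. IC50 was taken from initial hydrolysis rates relative to uninhibited controls.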

[9] = target: T5, CTX-M15 β-lactamase (Escherichia coli, UniProt Q9EXV5); assay: β-lactamase enzyme inhibition assay (nitrocefin substrate), CTXM-15; assay type: biochemical
T5 construct: expressed as native untagged proteins; made in house; host or cells: E. coli BL21(DE3)
T5 sequence (Q9EXV5 entry or part of it): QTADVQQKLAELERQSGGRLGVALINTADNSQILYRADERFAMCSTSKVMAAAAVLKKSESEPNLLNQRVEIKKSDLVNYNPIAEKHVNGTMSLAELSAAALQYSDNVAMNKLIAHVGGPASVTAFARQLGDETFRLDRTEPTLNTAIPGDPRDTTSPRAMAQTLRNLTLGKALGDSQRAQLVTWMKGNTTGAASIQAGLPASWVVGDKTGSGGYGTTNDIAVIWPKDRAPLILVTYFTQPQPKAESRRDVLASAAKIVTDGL
Procedure, shortened: as §2

[10] = target: T6, p99 AmpC β-lactamase (Enterobacter cloacae, UniProt P05364); assay: β-lactamase enzyme inhibition assay (nitrocefin substrate), P99 AmpC; assay type: biochemical
T6 construct: expressed as native untagged proteins; made in house; host or cells: E. coli BL21(DE3)
T6 sequence (P05364 21-381): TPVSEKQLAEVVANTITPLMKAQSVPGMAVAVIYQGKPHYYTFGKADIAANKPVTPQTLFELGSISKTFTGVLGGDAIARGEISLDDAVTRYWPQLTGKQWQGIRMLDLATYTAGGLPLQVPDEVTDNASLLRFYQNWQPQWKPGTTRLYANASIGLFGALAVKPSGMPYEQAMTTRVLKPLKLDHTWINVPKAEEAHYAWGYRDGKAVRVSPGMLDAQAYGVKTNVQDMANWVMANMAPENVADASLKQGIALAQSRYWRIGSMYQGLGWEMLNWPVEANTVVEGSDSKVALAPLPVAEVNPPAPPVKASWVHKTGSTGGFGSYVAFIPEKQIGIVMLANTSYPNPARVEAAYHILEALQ
Procedure, shortened: as §2

[11] = test system: E. coli expressing the Class A ESBL SHV-5; assay: In vitro antibacterial assay of β-lactamase inhibition (broth microdilution MIC), E. coli SHV-5; assay type: cell-based; details: in presence of Ceftazidime 8 μg/ml (Examples 1-56)
Procedure, shortened: as §1

[12] = nitrocefin 100 μM, 37° C., PBS pH 7.0, read-out: P99 AmpC IC50
[13] = nitrocefin 100 μM, 37° C., PBS pH 7.0, read-out: KPC-2 IC50
[14] = nitrocefin 100 μM, 37° C., PBS pH 7.0, read-out: SHV-5 IC50
[15] = nitrocefin 100 μM, 37° C., PBS pH 7.0, read-out: CTXM-15 IC50

Row | Compound | MIC of example compound, K. pneumoniae CTX-M-15 [1] | IC50 [2] | IC50 [3] | MIC of example compound, E. cloacae P99+ [4] | MIC of example compound, K. pneumoniae KPC-2 [5] | MIC of example compound, P. aeruginosa VIM-2 [6] | IC50 [7] | IC50 [8] | IC50 [9] | IC50 [10] | MIC of example compound, E. coli SHV-5 [11] | IC50 [10, 12] | IC50 [3, 13] | IC50 [7, 14] | IC50 [9, 15]
1 | Nc1cc(CC(=O)N[C@@H](Cc2cccc(C(=O)O)c2O)B(O)O)ccn1 [Example 45, (2R)-3-{2-[(2-amino-pyridin-4-yl-acetyl)-amino]-2-borono-ethyl}-2-hydroxy-benzoic acid formate] | 0.03 µg/mL | 811 nM | 6 nM | 0.06 µg/mL | 0.007 µg/mL | >8 µg/mL | 10 nM | 113 nM | 0.5 nM | 2 nM | 0.03 µg/mL | – | – | – | –
2 | Br.CC(C)(O/N=C(\C(=O)N[C@@H](Cc1cccc(C(=O)O)c1O)B(O)O)c1csc(N)n1)C(=O)O [Example 48, 3-{2(R)-[2-(2-amino-thiazol-4-yl)-2-(1-carboxy-1-methyl-ethoxyimino)-acetylamino]-2-borono-ethyl}-2-hydroxy-benzoic acid hydrobromide] | >8 µg/mL | > 1000 nM | 70 nM | >8 µg/mL | 2 µg/mL | >8 µg/mL | 4 nM | 670 nM | 12 nM | – | >8 µg/mL | 10 nM | – | – | –
3 | Cl.Nc1nc(/C(=N/O)C(=O)N[C@@H](Cc2cccc(C(=O)O)c2O)B(O)O)cs1 [Example 49, 3-{2(R)-[2-(2-amino-thiazol-4-yl)-2(Z)-hydroxyimino-acetylamino]-2-borono-ethyl}-2-hydroxy-benzoic acid hydrochloride] | 2 µg/mL | 590 nM | 34 nM | 2 µg/mL | 0.12 µg/mL | >8 µg/mL | 4 nM | 17 nM | 11 nM | – | 2 µg/mL | 2 nM | – | – | –
4 | C/C(=N/O)C(=O)N[C@@H](Cc1cccc(C(=O)O)c1O)B(O)O [Example 54, 3-[2(R)-(2-hydroxyimino-propionylamino)-2-borono-ethyl]-2-hydroxy-benzoic acid] | 1 µg/mL | > 1000 nM | 10 nM | 1 µg/mL | 0.03 µg/mL | >8 µg/mL | 48 nM | 494 nM | 5 nM | – | 2 µg/mL | 2 nM | – | – | –
5 | CC/C(=N/O)C(=O)N[C@@H](Cc1cccc(C(=O)O)c1O)B(O)O [Example 55, 3-[2(R)-(2-hydroxyimino-butyrylamino)-2-borono-ethyl]-2-hydroxy-benzoic acid] | 2 µg/mL | > 1000 nM | 6 nM | 1 µg/mL | 0.06 µg/mL | >8 µg/mL | 120 nM | 67 nM | 1 nM | – | 2 µg/mL | 0.5 nM | – | – | –
6 | CCC(=O)C(=O)N[C@@H](Cc1cccc(C(=O)O)c1O)B(O)O [Example 56, 3-[2(R)-(2-oxo-butyrylamino)-2-borono-ethyl]-2-hydroxy-benzoic acid] | 4 µg/mL | > 1000 nM | 24 nM | 2 µg/mL | 0.25 µg/mL | >8 µg/mL | 195 nM | 31 nM | 11 nM | – | >8 µg/mL | 2 nM | – | – | –
7 | (1R)-[3-{(2-hydroxy-ethylamino)-methyl}-benzoylamino]-(3-carboxy-2-hydroxy)benzyl-methylboronic acid formate [Example 43] | 0.5 µg/mL | 184 nM | – | 0.5 µg/mL | <0.015 µg/mL | >8 µg/mL | – | 38 nM | – | – | 2 µg/mL | 9 nM | 70 nM | 4 nM | 12 nM
8 | (2R)-3-[(2-[(2-chloro-pyridin-4-yl-acetyl)-amino]-2-borono-ethyl]-2-hydroxy-benzoic acid hydrochloride [Example 47] | 0.25 µg/mL | > 1000 nM | – | 1 µg/mL | 0.03 µg/mL | >8 µg/mL | – | 132 nM | – | – | 0.25 µg/mL | 5 nM | 2 nM | 1 nM | 2 nM
